Columns and labels:
Assay type in all cases: cell-based
Candida parapsilosis = assay: Antifungal activity in vitro, resazurin growth inhibition: Candida parapsilosis (B66126); details: for IC50: Lodderomyces parapsilosis, read-out: Inf. D: Candida parapsilosis B66126, pIC50 (converted)
Outline: (§1)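 Compound dilutions, with 64 μM as the highest in-test level, are spotted onto plates, then an inoculum of 10^3 cfu in RPMI-1640 plus 2% glucose (MOPS, pH 7.0±0.1) is added. Plates are incubated at species-dependent time and temperature, up to a week or more at 27° C. for dermatophytes.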

Rhizopus oryzae = assay: Antifungal activity in vitro, resazurin growth inhibition: Rhizopus oryzae (IHEM5223); details: for IC50: Rhizopus arrhizus, read-out: Inf. J: Rhizopus oryzae IHEM5223, pIC50 (converted)
Description: (§2) The standard susceptibility screen is performed in 96-well plates (U-bottom, Greiner Bio-One). Serial dilutions (2-fold or 4-fold) of 20 mM compound stock solutions are made in 100% DMSO, followed by an intermediate dilution step in water. These serial dilutions (10 μl) are then spotted onto test-plates that can be stored in the dark at 4° C. for a maximum period of 2 weeks. An adequate broad dose-range is included with 64 μM as the highest in-test concentration. The culture medium RPMI-1640 is supplemented with L-glutamine, 2% glucose and buffered with 3-(N-morpholino)-propanesulfonic acid (MOPS) at pH 7.0±0.1.
(§3) The different fungal species/isolates (Table 3a) are cryopreserved and 1/1000 diluted in medium just prior to use. A standard inoculum of 200 μl containing 10^3 colony-forming unit (cfu) is then added to each well. A positive control (100% growth=fungal culture without antifungal) and a negative control (0% growth ═RPMI-MOPS medium) are included on each plate. Optimal incubation time and temperature are dependent on the fungal species and vary from 24 h for yeasts (37° C.) to one week or more for dermatophytes (27° C.). Inhibition of fungal growth is measured after adding 10 μl of 0.005% (w/v) resazurin (Sigma Aldrich) to each well, based on the principle that living cells convert the non-fluorescent blue resazurin into the pink and fluorescent resorufin, allowing fluorimetric reading (λex 550 nm and λem 590 nm) after an additional incubation period (‘resa’ time mentioned in Table 3a).

Scedosporium prolificans = assay: Antifungal activity in vitro, resazurin growth inhibition: Scedosporium prolificans (IHEM21157); details: for IC50: Lomentospora prolificans, read-out: Inf. I: Scedosporium prolificans IHEM21157, pIC50 (converted)
Description: as §2, §3

Sporothrix schenkii = assay: Antifungal activity in vitro, resazurin growth inhibition: Sporothrix schenkii (B62482); details: for IC50: read-out: Inf. A: Sporothrix schenkii B62482, pIC50 (converted)
Outline: as §1

Aspergillus fumigatus = assay: Antifungal activity in vitro, resazurin growth inhibition: Aspergillus fumigatus (B42928); details: for IC50: read-out: Inf. E: Aspergillus fumigatus B42928, pIC50 (converted)
Outline: as §1

Microsporum canis = assay: Antifungal activity in vitro, resazurin growth inhibition: Microsporum canis (B68128); details: for IC50: read-out: Inf. B: Microsporum canis B68128, pIC50 (converted)
Outline: (§4)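 Dermatophytes incubated at 27° C. for one week or more with compound, max 64 μM, in RPMI-1640/MOPS pH 7.0±0.1, 10^3 cfu/well. Viability by resazurin-to-resorufin fluorescence, 550/590 nm.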

[1] = test system: Trichophyton mentagrophytes; assay: Antifungal activity in vitro, resazurin growth inhibition: Trichophyton mentagrophytes (B70554); details: for IC50: read-out: Inf. G: Trichophyton mentagrophytes B70554, pIC50 (converted)
Outline: as §4

Cryptococcus neoformans = assay: Antifungal activity in vitro, resazurin growth inhibition: Cryptococcus neoformans (B66663); details: for IC50: read-out: Inf. F: Cryptococcus neoformans B66663, pIC50 (converted)
Outline: as §1

Rhizomucor miehei = assay: Antifungal activity in vitro, resazurin growth inhibition: Rhizomucor miehei (IHEM13391); details: for IC50: read-out: Inf. K: Rhizomucor miehei IHEM13391, pIC50 (converted)
Description: as §2, §3

Trichophyton rubrum = assay: Antifungal activity in vitro, resazurin growth inhibition: Trichophyton rubrum (B68183); details: for IC50: read-out: Inf. C: Trichophyton rubrum B68183, pIC50 (converted)
Outline: as §4

Scedosporium apiospermum = assay: Antifungal activity in vitro, resazurin growth inhibition: Scedosporium apiospermum (IHEM3817); details: for IC50: read-out: Inf. H: Scedosporium apiospermum IHEM3817, pIC50 (converted)
Description: as §2, §3

| Compound | Inf. D: Candida parapsilosis B66126, pIC50 (Candida parapsilosis) | Inf. J: Rhizopus oryzae IHEM5223, pIC50 (Rhizopus oryzae) | Inf. I: Scedosporium prolificans IHEM21157, pIC50 (Scedosporium prolificans) | Inf. A: Sporothrix schenkii B62482, pIC50 (Sporothrix schenkii) | Inf. E: Aspergillus fumigatus B42928, pIC50 (Aspergillus fumigatus) | Inf. B: Microsporum canis B68128, pIC50 (Microsporum canis) | Inf. G: Trichophyton mentagrophytes B70554, pIC50 [1] | Inf. F: Cryptococcus neoformans B66663, pIC50 (Cryptococcus neoformans) | Inf. K: Rhizomucor miehei IHEM13391, pIC50 (Rhizomucor miehei) | Inf. C: Trichophyton rubrum B68183, pIC50 (Trichophyton rubrum) | Inf. H: Scedosporium apiospermum IHEM3817, pIC50 (Scedosporium apiospermum) | other results |
| --- | --- | --- | --- | --- | --- | --- | --- | --- | --- | --- | --- | --- |
| Cc1cccc2c1CN=C(c1cc3ccccc3s1)c1cccn1-2 [Compound 2] |  |  |  |  |  |  |  |  |  |  |  | IC50 (Candida parapsilosis): > 64600 nM; IC50 (Rhizopus oryzae): > 64600 nM; IC50 (Scedosporium prolificans): 1620 nM; IC50 (Sporothrix schenkii): 646 nM; IC50 (Aspergillus fumigatus): 2000 nM; IC50 (Microsporum canis): 331 nM; IC50 [1]: 427 nM; IC50 (Cryptococcus neoformans): 2000 nM; IC50 (Rhizomucor miehei): > 64600 nM; IC50 (Trichophyton rubrum): 166 nM; IC50 (Scedosporium apiospermum): 525 nM |
| Fc1ccc2oc(C3NCc4c(Cl)cccc4-n4cccc43)cc2c1 (racemic) [Compound 47] | <4.19 | <4.19 | 6.38 | <4.19 | 4.91 | 5.84 | 5.08 | <4.19 | 4.81 | 6.25 | 6.03 |  |
| Clc1cccc2c1-n1cccc1C(c1ccc3ncsc3c1)=NC2 [Compound 186] | <4.19 | <4.19 | 5.40 | 5.15 | 5.63 | 5.95 | 6.06 | 5.69 | 4.35 | 6.34 | 4.78 |  |
| Clc1cccc2c1CN=C(c1cnc3c(c1)CCC3)c1cccn1-2 [Compound 105] | 4.91 | <4.19 | 8.00 | 5.70 | 5.76 | 6.67 | 6.91 | 5.30 | 4.23 | 6.87 | 7.52 |  |
| Clc1ccc2c(c1)-n1cccc1C(c1ccc3sccc3c1)=NC2 [Compound 173] | 5.71 | <4.19 | 4.54 | 5.70 | 6.30 | 6.54 | 6.51 | 6.41 | 5.08 | 6.41 | 5.08 |  |
| Cc1ccc2cc(C3=NCc4c(C)cccc4-n4cccc43)oc2c1 [Compound 140] | 4.34 | <4.19 | 6.36 | 6.23 | 5.05 | 6.44 | 6.11 | 4.60 | 4.68 | 7.50 | 5.35 |  |
| COc1ccc2oc(C3=NCc4c(Cl)cccc4-n4cccc43)cc2c1 [Compound 146] | <4.19 | <4.19 | 4.80 | <4.19 | <4.19 | 5.76 | 5.44 | <4.19 | <4.19 | 6.19 | <4.19 |  |
| Cn1ccc2cc(C3=NCc4c(Cl)cc(Cl)cc4-n4cccc43)ccc21 [Compound 107] | 4.87 | <4.19 | 5.48 | 5.16 | 5.06 | 6.31 | 5.44 | 5.53 | <4.19 | 5.92 | 4.90 |  |
| CC(=O)c1ccc(C2=NCc3c(F)cc(F)cc3-n3cccc32)cn1 [Compound 94] | 4.59 | <4.19 | <4.19 | <4.19 | 5.13 | 5.71 | 5.92 | 4.58 | <4.19 | 6.19 | <4.19 |  |
| Cc1cccc2c1CN=C(c1ccc(C(F)(F)F)nc1)c1cccn1-2 [Compound 88] | <4.19 | <4.19 | 6.14 | 4.85 | <4.19 | 6.63 | 5.80 | <4.19 | <4.19 | 7.10 | 5.28 |  |
| Clc1cccc2c1CN=C(c1ccc3sccc3c1)c1cccn1-2 [Compound 9] |  |  |  |  |  |  |  |  |  |  |  | IC50 (Candida parapsilosis): 603 nM; IC50 (Rhizopus oryzae): > 64600 nM; IC50 (Scedosporium prolificans): 39.8 nM; IC50 (Sporothrix schenkii): 1660 nM; IC50 (Aspergillus fumigatus): 12.9 nM; IC50 (Microsporum canis): 107 nM; IC50 [1]: 97.7 nM; IC50 (Cryptococcus neoformans): 646 nM; IC50 (Rhizomucor miehei): 2340 nM; IC50 (Trichophyton rubrum): 36.3 nM; IC50 (Scedosporium apiospermum): 550 nM |

Reference: patent US9493468B2, “Antifungal 5,6-dihydro-4H-pyrrolo[1,2-a][1,4]benzo-diazepines and 6H-pyrrolo[1,2-a][1,4]benzodiazepines substituted with heterocyclic derivatives” (Janssen Pharmaceutica NV, priority 2011, dated 2016)
